Laboratory results as given in patent US20100189688A1, “Dose forms comprising VX-950 and their dosage regimen” (priority 2007, published 2010).
In brackets after ≈: the same amount, converted by molar mass. Several values for one entry are separate records, joined by “and”; a condition that tells them apart may be missing. Identical values can stand only once. Marks after values point to notes of the source that are not given here.

How the values were obtained:
clinical = details: male, human, in vivo, po
Method: (§2) A dose escalation scheme was used that combined dose doubling and modified Fibonacci to be aggressive in the lower dose range and conservative in the higher dose range.
(§3) A pharmacokinetics analysis was performed using the statistical moment approach.

genotype 1 hepatitis C = test: Phase 1b 14-day study of VX-950, VX-950/Peg-IFN-2a or Peg-IFN-2a followed by Peg-IFN-2a/RBV: HCV RNA and SVR (Example 9); details: for patients who achieved SVR: 14 days of VX-950 (alone or in combination with PEG-IFN) then PEG-IFN with RBV
[1] = system: ALT (alanine aminotransferase); test: 14-day multiple-dose study: serum ALT / AST levels; type: in vivo, human
Text: The serum alanine aminotransferase (ALT) level can be measured using commercially available methods. Mean ALT levels, elevated at baseline, decreased during dosing in all groups (FIG. 6). Mean ALT levels increased, returned toward baseline, in all dose groups during follow up.

HCV NS3/4A protease = HCV NS3/4A protease (Hepatitis C virus genotype 1a, UniProt P27958); test: In vitro cleavage of TRIF by HCV NS3 protease; type: biochemical; details: 10 μM VX-950, tNS3 0-4 μM
Sequence of HCV NS3/4A protease (P27958 1027-1208, other chains not shown): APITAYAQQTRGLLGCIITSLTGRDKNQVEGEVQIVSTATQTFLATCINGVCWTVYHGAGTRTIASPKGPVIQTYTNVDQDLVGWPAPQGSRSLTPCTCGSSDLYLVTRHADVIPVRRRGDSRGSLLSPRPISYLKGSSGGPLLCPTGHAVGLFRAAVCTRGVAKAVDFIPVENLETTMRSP
Method: The 35S methionine labeled coupled in vitro transcription/translation product of TRIF protein (as a substrate) was incubated with increasing concentration of tNS3 protease enzyme ranging from 0-4 μM either in the presence (Circles) or absence (Squares) of 10 μM VX-950, followed by SDS-PAGE and exposure to phosphorimager.

[2] = Multiple-dose study (Example 5): tolerability and VX-950 plasma trough levels; type: in vivo, human
Method: (§1) All other 34 subjects completed the study.
The assay for determined VX-950 concentration in human plasma was performed by methods well known in the art. See, e.g., Wasley, A. et al., Semin. Liver Dis., 20:1-16, 2000; Alter, H. J. et al., Semin. Liver Dis., 20: 17-35, 2000; Brown, R. S. Jr. et al., Liver Transpl., 9: S10-S13, 2003; DeFrancesco, R. et al., Nature, 436(7053): 953-960, 2005; Bowen, D. G. et al., J. Hepatol., 42: 408-417, 2005; Hoofnagle, J. H., Hepatology, 36: S21-S29, 2002, Brown, R. S. Jr. et al., Nature, 436 (7053): 973-978, 2005; and Chisari, F. V., Nature, 436(7053): 930-932, 2005.
Sample Preparation: 100 μL of plasma and 100 μL of internal standard working solution (or acetonitrile for blank samples) were added to an extraction tube. After vortex mixing for 30 seconds, 500 μL of toluene was added and extraction was performed by vortex mixing for 30 seconds. After centrifugation at 3000 rpm at 4° C. for 5 minutes, the aqueous layer was frozen in a mixture of acetone and dry ice and the organic layer was transferred to another extraction tube. 50 μL of 2,2-dimethoxypropane was added and the samples were evaporated to dryness under nitrogen at approximately 30° C. The residue was re-dissolved in 300 μL of a mixture of heptane and acetone (90:10, v/v) [or a mixture of heptane and THF (80:20, v/v)] by vortex mixing for 60 seconds. […]

neopterin = test: 14-day multiple-dose study: serum neopterin (ELISA)
[3] = human, in vivo
Method: as §2, §3

[4] = Single-dose escalation tolerance and pharmacokinetics study in healthy male volunteers (Example 3); details: single doses 25 mg to 1250 mg
Method: as §2, §3

infectious virus = test: Infectious virus assay; type: cell-based
HCV genotype 1 = test: 14-day multiple-dose study in Hepatitis C positive subjects: plasma HCV RNA (Example 5); type: in vivo, human; details: for mean HCV RNA drop: 750 mg q8h
Method: Detection of HCV RNA can be done, e.g., by using the Roche COBAS TaqMan HCV/HPS assay, available from Roche molecular Diagnostics. Subjects (or patients) receiving 750 mg of VX-950 every eight hours for 14 days achieved a median reduction in HCV-RNA of greater than 4 log10 (i.e., 10,000-fold decrease) at the end of the treatment. […] See Example 5 and FIGS. 3-5.
as §1
The HCV positive subjects were tested post-treatment to monitor HCV RNA levels' return to baseline.

IFN-β promoter activity = test: IFN-β promoter luciferase activity in Sendai virus stimulated Huh7 cells expressing HCV protease; details: 10 μM VX-950, Huh7 cells, Sendai virus stimulation, 16 hours post-infection
[5] = in vivo
[6] = system: hepatitis C virus (HCV) replicon; test: HCV replicon cell assay; details: 48 h
[7] = Predicted human liver exposure relative to replicon assay IC50/IC90; details: in the dose range studied
WT-HCV protease-SEAP = details: SCID mice expressing WT-HCV protease-SEAP; cited from earlier work
HCV = details: monotherapy, fraction of cases; cited from earlier work
[8] = at the completion of the 14-day dosing period
[9] = of the 8 subjects receiving 750 mg q8h

CCC[C@H](NC(=O)[C@@H]1[C@H]2CCC[C@H]2CN1C(=O)[C@@H](NC(=O)[C@@H](NC(=O)c1cnccn1)C1CCCCC1)C(C)(C)C)C(=O)C(=O)NC1CC1 [VX-950]
Tmax (clinical): 3 h
SVR after a 2 week treatment of VX-950 (genotype 1 hepatitis C; 2 week treatment): SVR was achieved in a patient
HCV RNA levels at the last off-study follow-up day (genotype 1 hepatitis C; 12 weeks after the last on-study follow-up, patients who continued with Peg-IFN-2a/RBV): undetectable in all patients
antiviral activity (genotype 1 hepatitis C; 14 days): rapid and profound antiviral activity
patients who achieved SVR (genotype 1 hepatitis C; treated for 24 weeks): 7 of 10
patients who achieved SVR (genotype 1 hepatitis C; treated for 48 weeks): 3 of 5
patients in whom SVR was achieved (genotype 1 hepatitis C; 14 days of VX-950 optionally in combination with Peg-INF, followed by Peg-INF/RBV for an additional 22 or 46 weeks): 10 of 15
decrease of HCV RNA levels, generally (genotype 1 hepatitis C; [8]): at least 2 log10
decrease of HCV RNA levels, in some cases (genotype 1 hepatitis C; [8]): at least 4 log10
patients with undetectable HCV RNA (genotype 1 hepatitis C; at week 12): 5 of 7
patients with undetectable HCV RNA (genotype 1 hepatitis C; at week 24, all patients who received VX-950 (alone or with PEG-IFN)): 15
Undetectable HCV RNA at 24-week off study peg-IFN-2a/RBV treatment (genotype 1 hepatitis C; group sizes N 7 / 8 / 4): 7* N
Undetectable HCV RNA at 12 weeks follow-up after stopping peg-IFN-2a/RBV (genotype 1 hepatitis C; patients who stopped Peg-IFN-2a/RBV at week 24): 2 of 4 and 2/4
median ALT value ([1]; 450 mg q8h, day 12, 5 out of 10 samples missing (range 25-125)): 38 U/I
effect on ALT levels in vivo ([1]; 14 days dosing): decreases
effect on AST (aspartate aminotransferase) levels ([1]; upon administration): decreased
effect on in vitro cleavage of TRIF by NS3 protease (HCV NS3/4A protease): inhibits in vitro cleavage of TRIF
tolerability of multiple doses ([2]; 450 mg, 750 mg or 1250 mg, 5 or 14 days): well tolerated at all dose levels
trough levels of VX-950 in plasma ([2]; about 750 mg three times a day, every 8 hours, compared with other regimens): highest trough levels
mean neopterin level (neopterin; 750 mg q8h, day 14 (baseline 10.48±0.84 nmol/L; ULN 7.7)): 7.32 ± 0.48 nmol/L
effect on neopterin levels in vivo (neopterin; 14 days dosing): decreases
oral bioavailability ([3]; po): orally bioavailable
VX-950 eliminated unchanged in the urine ([3]; male): Less than 2%
tolerability of single doses [4]: well tolerated at all dose levels
IC50 (infectious virus): 0.196 µg/mL (≈ 0.288 µM)
Maximum change from baseline in HCV RNA (log10 IU/mL): subjects in category >−1 to <0 (HCV genotype 1; 450 mg q8h (n = 10)): 0 n (%)
Maximum change from baseline in HCV RNA (log10 IU/mL): subjects in category >−2 to ≦−1 (HCV genotype 1; 450 mg q8h (n = 10)): 0 n (%)
Maximum change from baseline in HCV RNA (log10 IU/mL): subjects in category >−3 to ≦−2 (HCV genotype 1; 450 mg q8h (n = 10)): 1 (10.0) n (%)
Maximum change from baseline in HCV RNA (log10 IU/mL): subjects in category >−4 to ≦−3 (HCV genotype 1; 450 mg q8h (n = 10)): 7 (70.0) n (%)
Maximum change from baseline in HCV RNA (log10 IU/mL): subjects in category >−5 to ≦−4 (HCV genotype 1; 450 mg q8h (n = 10)): 0 n (%)
Maximum change from baseline in HCV RNA (log10 IU/mL): subjects in category ≧−5 (HCV genotype 1; 450 mg q8h (n = 10)): 2 (20.0) n (%)
median reduction in HCV-RNA (HCV genotype 1; 750 mg every eight hours, end of 14 days): greater than 4 log10
Maximum change from baseline in HCV RNA (log10 IU/mL): subjects in category >−1 to <0 (HCV genotype 1; 750 mg q8h (n = 8)): 0 n (%)
Maximum change from baseline in HCV RNA (log10 IU/mL): subjects in category >−2 to ≦−1 (HCV genotype 1; 750 mg q8h (n = 8)): 0 n (%)
Maximum change from baseline in HCV RNA (log10 IU/mL): subjects in category >−3 to ≦−2 (HCV genotype 1; 750 mg q8h (n = 8)): 0 n (%)
Maximum change from baseline in HCV RNA (log10 IU/mL): subjects in category >−4 to ≦−3 (HCV genotype 1; 750 mg q8h (n = 8)): 3 (37.5) n (%)
Maximum change from baseline in HCV RNA (log10 IU/mL): subjects in category >−5 to ≦−4 (HCV genotype 1; 750 mg q8h (n = 8)): 3 (37.5) n (%)
Maximum change from baseline in HCV RNA (log10 IU/mL): subjects in category ≧−5 (HCV genotype 1; 750 mg q8h (n = 8)): 2 (25.0) n (%)
mean HCV RNA drop (HCV genotype 1; day 3): 3.6 log10
mean HCV RNA drop (HCV genotype 1; day 14): 4.3 log10
Maximum change from baseline in HCV RNA (log10 IU/mL): subjects in category >−1 to <0 (HCV genotype 1; 1250 mg q12h (n = 10)): 0 n (%)
Maximum change from baseline in HCV RNA (log10 IU/mL): subjects in category >−2 to ≦−1 (HCV genotype 1; 1250 mg q12h (n = 10)): 0 n (%)
Maximum change from baseline in HCV RNA (log10 IU/mL): subjects in category >−3 to ≦−2 (HCV genotype 1; 1250 mg q12h (n = 10)): 1 (10.0) n (%)
Maximum change from baseline in HCV RNA (log10 IU/mL): subjects in category >−4 to ≦−3 (HCV genotype 1; 1250 mg q12h (n = 10)): 9 (90.0) n (%)
Maximum change from baseline in HCV RNA (log10 IU/mL): subjects in category >−5 to ≦−4 (HCV genotype 1; 1250 mg q12h (n = 10)): 0 n (%)
Maximum change from baseline in HCV RNA (log10 IU/mL): subjects in category ≧−5 (HCV genotype 1; 1250 mg q12h (n = 10)): 0 n (%)
drop in viral load in every patient (HCV genotype 1; all dose groups, during administration): at least 2 log10
median reduction of HCV-RNA (HCV genotype 1; each of the other two dose groups (450 mg q8h, 1250 mg q12h), end of 14 days): greater than 2 log10
effect on HCV replication in humans (HCV genotype 1; human, in vivo): effective in inhibiting HCV replication
subjects with HCV RNA below the limit of detection (LLD 10 IU/mL) (HCV genotype 1; [9]): 2
subjects with HCV RNA below the limit of quantitation (LLQ 30 IU/mL) (HCV genotype 1; [9]): 4
subjects with a 3 log10 reduction in HCV-RNA (HCV genotype 1; within the first three days of treatment): 26 of the 28
reduction in HCV-RNA achieved by every subject (HCV genotype 1; within the first three days of treatment, all dose groups): greater than 2 log10
effect on WT HCV protease mediated suppression of IFNβ promoter activation (IFN-β promoter activity): overcomes the WT HCVpro mediated suppression of IFNβ promoter activation
tolerability [5]: well tolerated
IC50 ([6]; read-out: IC50 in the replicon assay): ~0.24 µg/mL (≈ 0.353 µM)
IC90 ([6]; read-out: IC90 in the replicon assay): ~0.476 µg/mL (≈ 0.7 µM)
predicted average liver concentration as multiple of replicon assay IC50 [7]: up to 113 fold
predicted average liver concentration as multiple of replicon assay IC90 [7]: up to 57 fold
effect on elevated ALT levels in an animal model (WT-HCV protease-SEAP): ameliorates elevated ALT levels

interferon alfa
long term remission (HCV): ~25%
